Test system: Bovine cardiac myofibrils
Assay: Dose-dependent myofibril ATPase modulation (calcium-buffered, pyruvate kinase and lactate dehydrogenase-coupled ATPase assay at pCa25)
Type: biochemical
Conditions: concentration at which ATPase activity was 1.4-fold higher than the bottom of the dose curve, mean of a minimum of two independent tests
Procedure: In Vitro Model of Dose-Dependent Myofibril ATPase Modulation
Dose responses were measured using a calcium-buffered, pyruvate kinase and lactate dehydrogenase-coupled ATPase assay containing the following reagents (concentrations expressed are final assay concentrations): Potassium PIPES (12 mM), MgCl2 (2 mM), ATP (1 mM), DTT (1 mM), BSA (0.1 mg/ml), NADH (0.5 mM), PEP (1.5 mM), pyruvate kinase (4 U/ml), lactate dehydrogenase (8 U/ml), and antifoam (90 ppm). The pH was adjusted to 6.80 at 22° C. by addition of potassium hydroxide. Calcium levels were controlled by a buffering system containing 0.6 mM EGTA and varying concentrations of calcium, to achieve a free calcium concentration of 1×10^−4 M to 1×10^−8 M.
Bovine cardiac myofibrils were obtained by homogenizing the appropriate tissue in the presence of detergent. Such treatment removes membranes and majority of soluble cytoplasmic proteins but leaves intact cardiac sarcomeric acto-myosin apparatus. Concentrations of myofibrils were adjusted to achieve the necessary rate of ATP hydrolysis (typically 0.25-1.0 mg/ml).
Chemical entity dose responses were measured at the calcium concentration corresponding to 25% of maximal ATPase activity (pCa25), so a preliminary experiment was performed to test the response of the ATPase activity to free calcium concentrations in the range of 1×10^−4 M to 1×10^−8 M. Subsequently, the assay mixture was adjusted to the pCa25. Assays were performed by first preparing a dilution series of test chemical entity, each with an assay mixture containing potassium Pipes, MgCl2, BSA, DTT, pyruvate kinase, lactate dehydrogenase, myofibrils, antifoam, EGTA, CaCl2), and water. The assay was started by adding an equal volume of solution containing potassium Pipes, MgCl2, BSA, DTT, ATP, NADH, PEP, antifoam, and water. ATP hydrolysis was monitored by absorbance at 340 nm. The resulting dose response curve was fit by the 4 parameter equation y=Bottom+((Top−Bottom)/(1+((EC50/X)^Hill))). […] AC1.4 values reported in the table below are mean values based on a minimum of two independent tests.

Row | AC1.4 [µM] | Structure (SMILES)
1 | 0.2504 | CNc1cc2nc(C)[nH]c(=O)c2cc1S(=O)(=O)NC1CCc2c([nH]c3ccccc23)C1 (stereo not shown) [Compound 28, 2-Methyl-7-(methylamino)-4-oxo-N-(2,3,4,9-tetrahydro-1H-carbazol-2-yl)-3,4-dihydroquinazoline-6-sulfonamide]
2 | 8.204 | CNc1cc2nc(C)[nH]c(=O)c2cc1S(=O)(=O)NC(C)Cc1[nH]c2ccccc2c1C (stereo not shown) [Compound 29, 2-Methyl-N-(1-(3-methyl-1H-indo1-2-yl)propan-2-yl)-7-(methylamino)-4-oxo-3,4-dihydroquinazoline-6-sulfonamide]
3 | 5.8178 | CNc1cc2nc(C)[nH]c(=O)c2cc1S(=O)(=O)N[C@H]1CCc2c([nH]c3ccccc23)C1 [Compound 32, (S)-2-Methyl-7-(methylamino)-4-oxo-N-(2,3,4,9-tetrahydro-1H-carbazol-2-yl)-3,4-dihydroquinazoline-6-sulfonamide]
4 | 13.2484 | CNc1cc2nc(C)[nH]c(=O)c2cc1S(=O)(=O)NCCc1cc2ccccc2[nH]1 [Compound 34]
5 | 6.2537 | CNC(=O)c1cc(S(=O)(=O)NC2CCc3c([nH]c4ccccc34)C2)[nH]c1C (stereo not shown) [Compound 35, N,2-dimethyl-5-(N-(2,3,4,9-tetrahydro-1H-carbazol-2-yl)sulfamoyl)-1H-pyrrole-3-carboxamide]
6 | 6.922 | Cc1[nH]c(S(=O)(=O)NC2CCc3c([nH]c4ccccc34)C2)cc1C(=O)N(C)C (stereo not shown) [Compound 36, N,N,2-trimethyl-5-(N-(2,3,4,9-tetrahydro-1H-carbazol-2-yl)sulfamoyl)-1H-pyrrole-3-carboxamide]
7 | 2.9421 | COCCNC(=O)c1cc(S(=O)(=O)NC2CCc3c([nH]c4ccccc34)C2)[nH]c1C (stereo not shown) [Compound 37, N-(2-methoxyethyl)-2-methyl-5-(N-(2,3,4,9-tetrahydro-1H-carbazol-2-yl)sulfamoyl)-1H-pyrrole-3-carboxamide]
8 | 4.3985 | Cc1[nH]c(S(=O)(=O)N[C@@H]2CCc3c([nH]c4ccccc34)C2)cc1C(N)=O [Compound 38, (R)-2-methyl-5-(N-(2,3,4,9-tetrahydro-1H-carbazol-2-yl)sulfamoyl)-1H-pyrrole-3-carboxamide]
9 | 1.722 | Cc1[nH]c(S(=O)(=O)N[C@@H]2CCc3c([nH]c4ccccc34)C2)cc1C(=O)NCCO [Compound 39, (R)-N-(2-hydroxyethyl)-2-methyl-5-(N-(2,3,4,9-tetrahydro-1H-carbazol-2-yl)sulfamoyl)-1H-pyrrole-3-carboxamide]
10 | 0.0608 | Cc1[nH]c(S(=O)(=O)N[C@@H]2CCc3c([nH]c4ccccc34)C2)cc1C(=O)N1CC(C)(C)C1 [Compound 40, (R)-4-(3,3-dimethylazetidine-1-carbonyl)-5-methyl-N-(2,3,4,9-tetrahydro-1H-carbazol-2-yl)-1H-pyrrole-2-sulfonamide]
11 | 0.2434 | Cc1[nH]c(S(=O)(=O)N[C@@H]2CCc3c([nH]c4ccccc34)C2)cc1C(=O)N1CCC1 [Compound 41, (R)-4-(azetidine-1-carbonyl)-5-methyl-N-(2,3,4,9-tetrahydro-1H-carbazol-2-yl)-1H-pyrrole-2-sulfonamide]
12 | 0.06395 | Cc1[nH]c(S(=O)(=O)N[C@@H]2CCc3c([nH]c4ccccc34)C2)cc1C(=O)N1CC(F)(F)C1 [Compound 42, (R)-4-(3,3-difluoroazetidine-1-carbonyl)-5-methyl-N-(2,3,4,9-tetrahydro-1H-carbazol-2-yl)-1H-pyrrole-2-sulfonamide]
13 | 0.1254 | Cc1[nH]c(S(=O)(=O)N[C@@H]2CCc3c([nH]c4ccccc34)C2)cc1C(=O)N1CC(C)(O)C1 [Compound 43]
14 | 0.906 | Cc1[nH]c(S(=O)(=O)N[C@@H]2CCc3c([nH]c4ccccc34)C2)cc1C(=O)NCCF [Compound 44, (R)-N-(2-fluoroethyl)-2-methyl-5-(N-(2,3,4,9-tetrahydro-1H-carbazol-2-yl)sulfamoyl)-1H-pyrrole-3-carboxamide]
15 | 0.4627 | Cc1[nH]c(S(=O)(=O)N[C@@H]2CCc3c([nH]c4ccccc34)C2)cc1C(=O)NCC(F)(F)F [Compound 45, (R)-2-methyl-5-(N-(2,3,4,9-tetrahydro-1H-carbazol-2-yl)sulfamoyl)-N-(2,2,2-trifluoroethyl)-1H-pyrrole-3-carboxamide]
16 | 0.2277 | Cc1[nH]c(S(=O)(=O)N[C@@H]2CCc3c([nH]c4ccccc34)C2)cc1C(=O)N1CCCC1 [Compound 46, (R)-5-methyl-4-(pyrrolidine-1-carbonyl)-N-(2,3,4,9-tetrahydro-1H-carbazol-2-yl)-1H-pyrrole-2-sulfonamide]
17 | 0.04675 | Cc1[nH]c(S(=O)(=O)N[C@@H]2CCc3c([nH]c4ccccc34)C2)cc1C(=O)N1CC(C)(C#N)C1 [Compound 48, (R)-4-(3-cyano-3-methylazetidine-1-carbonyl)-5-methyl-N-(2,3,4,9-tetrahydro-1H-carbazol-2-yl)-1H-pyrrole-2-sulfonamide]

The remaining lines, values behind:

Row | Structure (SMILES) | AC1.4 [µM]
18 | CNc1cc2c(cc1S(=O)(=O)N[C@H]1C[C@@H](Nc3ccc(F)cc3)C1)c(=O)[nH]c(=O)n2C [Compound 25, N-((cis)-3-((4-fluorophenyl)amino)cyclobutyl)-1-methyl-7-(methylamino)-2,4-dioxo-1,2,3,4-tetrahydroquinazoline-6-sulfonamide] | 1.8965
19 | CNc1cc2c(cc1S(=O)(=O)N[C@H](C)Cc1cc3ccc(F)cc3[nH]1)c(=O)[nH]c(=O)n2C [Compound 26, (R)-N-(1-(6-fluoro-1H-indo1-2-yl)propan-2-yl)-1-methyl-7-(methylamino)-2,4-dioxo-1,2,3,4-tetrahydroquinazoline-6-sulfonamide] | 2.215
20 | CCOC(=O)c1cc(S(=O)(=O)Nc2ccc(N3C[C@H](C)C[C@@H](C)C3)nc2)[nH]c1C [Compound 30, Ethyl 5-(N-(6-((3R,5R)-3,5-dimethylpiperidin-1-yl)pyridin-3-yl)sulfamoyl)-2-methyl-1H-pyrrole-3-carboxylate] | 0.4832
21 | Cc1[nH]c(S(=O)(=O)NC23COc4cc(F)c(Cl)cc4C2C3)cc1C(=O)N1CC(C)(C#N)C1 (stereo not shown) [Compound 31, N-(6-chloro-5-fluoro-1,7b-dihydrocyclopropa[c]chromen-1a(2H)-yl)-4-(3-cyano-3-methylazetidine-1-carbonyl)-5-methyl-1H-pyrrole-2-sulfonamide] | 1.274
22 | Cc1[nH]c(S(=O)(=O)N[C@@H]2CCc3c([nH]c4ccccc34)C2)cc1C(=O)N1CCCCC1 [Compound 47, (R)-5-methyl-4-(piperidine-1-carbonyl)-N-(2,3,4,9-tetrahydro-1H-carbazol-2-yl)-1H-pyrrole-2-sulfonamide] | 1.9857
23 | Cc1[nH]c(S(=O)(=O)Nc2ccc(N3C[C@H](C)C[C@@H](C)C3)nc2)cc1C(=O)N1CC(F)(F)C1 [Compound 49, 4-(3,3-Difluoroazetidine-1-carbonyl)-N-(6-((3R,5R)-3,5-dimethylpiperidin-1-yl)pyridin-3-yl)-5-methyl-1H-pyrrole-2-sulfonamide] | 2.9024
24 | Cc1[nH]c(S(=O)(=O)N[C@H]2C[C@H](c3cccc(Cl)c3)C2)cc1C(=O)N1CC(C)(C#N)C1 [Compound 50, N-((trans)-3-(3-chlorophenyl)cyclobutyl)-4-(3-cyano-3-methylazetidine-1-carbonyl)-5-methyl-1H-pyrrole-2-sulfonamide] | 0.5466
25 | Cc1[nH]c(S(=O)(=O)N[C@H]2C[C@H](c3cccc(F)c3)C2)cc1C(=O)N1CC(C)(C#N)C1 [Compound 51, 4-(3-Cyano-3-methylazetidine-1-carbonyl)-N-((trans)-3-(3-fluorophenyl)cyclobutyl)-5-methyl-1H-pyrrole-2-sulfonamide] | 2.8889
26 | Cc1[nH]c(S(=O)(=O)NC23CC(c4ccccc4)(C2)C3)cc1C(=O)N1CC(C)(C#N)C1 [Compound 52, 4-(3-Cyano-3-methylazetidine-1-carbonyl)-5-methyl-N-(3-phenylbicyclo[1.1.1]pentan-l-yl)-1H-pyrrole-2-sulfonamide] | 1.4557
27 | Cc1[nH]c(S(=O)(=O)N[C@H]2C[C@H](c3ccc(Cl)cc3)C2)cc1C(=O)N1CC(C)(C#N)C1 [Compound 53, N-((trans)-3-(4-chlorophenyl)cyclobutyl)-4-(3-cyano-3-methylazetidine-1-carbonyl)-5-methyl-1H-pyrrole-2-sulfonamide] | 0.6222
28 | Cc1[nH]c(S(=O)(=O)N[C@H]2C[C@@H](c3cccc(C(F)(F)F)c3)C2)cc1C(=O)N1CC(C)(C#N)C1 [Compound 54, 4-(3-Cyano-3-methylazetidine-1-carbonyl)-5-methyl-N-((cis)-3-(3-(trifluoromethyl)phenyl)cyclobutyl)-1H-pyrrole-2-sulfonamide] | 2.9934

— patent US20220332708A1 (Cytokinetics, Inc., priority 2021, published 2022)
